Reference: paper PMC12036750, “Screening of SIRT6 inhibitors and activators: A novel activator has an impact on breast cancer cells” (Biomedicine & pharmacotherapy = Biomedecine & …, 2021)

Assays:
[1] = target: T1, SIRT6 (Homo sapiens, UniProt Q8N6T7); test: fluorogenic demyristoylase assay (BPS Bioscience), myristoyl peptide substrate; assay type: biochemical
Target sequence in this assay (Q8N6T7 2-355): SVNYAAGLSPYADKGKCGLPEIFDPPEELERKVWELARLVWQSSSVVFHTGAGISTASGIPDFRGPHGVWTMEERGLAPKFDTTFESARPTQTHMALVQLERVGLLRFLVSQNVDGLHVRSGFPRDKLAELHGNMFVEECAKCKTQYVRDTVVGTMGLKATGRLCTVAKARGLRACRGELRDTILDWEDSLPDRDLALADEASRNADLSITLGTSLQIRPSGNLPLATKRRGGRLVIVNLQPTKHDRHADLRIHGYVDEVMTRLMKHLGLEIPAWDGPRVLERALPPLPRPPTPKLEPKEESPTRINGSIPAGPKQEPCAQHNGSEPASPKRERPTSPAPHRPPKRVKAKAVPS

[2] = target: T1, SIRT6; test: HPLC deacetylation assay, single concentration […]; assay type: biochemical; conditions: read-out: % inhibition at 100 μM
Target sequence in this assay (Q8N6T7 whole entry): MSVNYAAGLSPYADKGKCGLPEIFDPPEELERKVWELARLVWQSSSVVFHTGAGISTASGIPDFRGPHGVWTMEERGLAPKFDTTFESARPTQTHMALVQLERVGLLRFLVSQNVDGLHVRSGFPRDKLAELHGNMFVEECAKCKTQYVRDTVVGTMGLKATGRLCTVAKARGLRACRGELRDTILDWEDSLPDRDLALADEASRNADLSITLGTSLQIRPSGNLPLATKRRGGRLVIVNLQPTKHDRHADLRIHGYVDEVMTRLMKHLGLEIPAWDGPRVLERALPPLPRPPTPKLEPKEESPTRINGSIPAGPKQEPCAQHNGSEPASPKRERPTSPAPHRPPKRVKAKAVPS

[3] = target: T2, SIRT2 (Homo sapiens, UniProt Q8IXJ6); test: fluorogenic deacetylation assay (BioMol KI179 substrate), single concentration […]; assay type: biochemical
T2 sequence (Q8IXJ6 2-389): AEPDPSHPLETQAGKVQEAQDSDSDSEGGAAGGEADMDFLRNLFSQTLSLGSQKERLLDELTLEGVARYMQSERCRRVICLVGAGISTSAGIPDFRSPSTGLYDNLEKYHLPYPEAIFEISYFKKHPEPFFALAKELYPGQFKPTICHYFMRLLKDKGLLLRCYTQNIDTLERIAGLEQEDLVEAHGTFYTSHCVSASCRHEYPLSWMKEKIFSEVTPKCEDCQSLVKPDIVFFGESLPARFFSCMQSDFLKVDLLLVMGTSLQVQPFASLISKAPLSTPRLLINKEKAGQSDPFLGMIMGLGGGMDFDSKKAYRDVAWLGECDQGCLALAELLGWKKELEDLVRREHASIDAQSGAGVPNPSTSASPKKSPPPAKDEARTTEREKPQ

[4] = target: T1, SIRT6; test: HPLC deacetylation assay with H3K9Ac peptide; dose response and steady-state kinetics (activation); assay type: biochemical
Target sequence in this assay (Q8N6T7 whole entry): as the sequence (Q8N6T7 whole entry) above

[5] = system: T3, NC(=O)c1ccc[n+]([C@@H]2O[C@H](COP(=O)([O-])OP(=O)(O)OC[C@H]3O[C@@H](n4cnc5c(N)ncnc54)[C@H](O)[C@@H]3O)[C@@H](O)[C@H]2O)c1; test: steady-state Michaelis-Menten kinetics by HPLC (Km, DMSO control); assay type: biochemical, Homo sapiens
T3 construct: GST-tagged recombinant SIRT6

NC(=O)c1cccnc1 [NAM]
inhibition at 200 µM [1]: 86 ± 13%

O=c1c(O)c(-c2ccc(O)c(O)c2)oc2cc(O)cc(O)c12 [Q, quercetin]
inhibition at 100 µM [2]: 30%

Cc1c(-c2ccccc2)oc2c(CC(=O)OCC(=O)c3ccc(O)cc3O)cccc2c1=O [compound 1, (2,4-dihydroxy-phenyl)–2-oxoethyl 2-(3-methyl-4-oxo-2-phenyl-4H-chromen-8-yl)acetate]
inhibition at 200 µM [3]: 53 ± 1.3%
EC50 [4]: 80 ± 12 µM

SIRT6 (Homo sapiens)
Km [5]: 1190 ± 450 µM
kcat [5]: 0.0022 ± 0.0004 s⁻¹
kcat/Km [5]: 1.9 M⁻¹ s⁻¹
